The values below come from US7199113B2, “Pharmaceutically active compounds and methods of use thereof” (priority 1998, dated 2007).

Format in all cases: biochemical
The target of one test is T1, TF/VIIa complex (Homo sapiens, UniProt P13726).
T1 construct: Truncated recombinant human tissue factor (e.g. composed of 243 amino acids) is expressed in E. coli; host or cells: E. coli (TF)
Description: TF/VIIa-dependent FIX activation assay. The settings on record: for blocking activity in standard assay for TF/VIIa-dependent factor IX activation: statement on FIG. 3; for inhibition of TF/VIIa-dependent FIX activation: statement on Table 4 (FIG. 2(d)). As to the method: In a more particular embodiment, the standard assay preferably includes the following steps: • 1) admixing in a suitable assay solution about 0.7 nM TF/VIIa complex with 300 nM factor IX and 1000 nM factor X, and from between about 0.5 μl to about 10 μl of at least one compound to be tested (optionally dissolved in an appropriate vehicle such as water or dimethylsulfoxide (DMSO)) and incubating the solution at 37° C. from between about a few minutes up to about an hour under conditions suitable for forming FIXa and FXa; • 2) contacting the solution with a suitable chelating agent such as EDTA to stop FIX activation; • 3) contacting the solution with a chromogenic substrate specific for the FXa (e.g., Spectrozyme FXa) and incubating same at 37° C.; and • 4) detecting chromophore in the solution as being indicative of the factor IX activation.
TF/VIIa is not only able to activate FX, but is also able to convert FIX to FIXa. To examine whether the two antagonists 1 and 2 were able to block FIX activation catalyzed by TF/VIIa. FIX activation experiment was conducted. To each well of a 96-well plate, 5 μl of diluted DMSO or compound was added, followed by 45 μl of TF/VIIa (0.67 nM). After mixing and incubating for 15 minutes at 37° C., 10 μl of FIX (300 nM) was added and incubated for 10 minutes at 37° C. 10 μl of EDTA ([…] in 144 mM HEPES, […], 0.576% BSA, pH adjusted to 7.5) was added, followed by addition of 10 μl of FX (1000 nM), 10 μl of polylysine, and 10 μl of Spectrozyme FXa (6 mM). After 3 hour incubation at 37° C., absorbance at 405 nm was measured following addition of 20 μl of 50% acetic acid. The percent inhibition of TF/VIIa-dependent FIX activation was calculated from OD405 nm values in the absence and presence of a compound.

For another test, the target named is T2, FXa (Homo sapiens, UniProt P00742).
T2 construct: FX is converted to FXa by TF/VIIa complex in the absence of any compound; purchased Enzyme Research Laboratories Inc
Kind of test: FXa activity assay. The settings on record: statement on Table 1 (FIG. 2(a)). As to the method:
FX is converted to FXa by TF/VIIa complex in the absence of any compound. To do that, 54 μl of TF/VIIa (50 nM) was added to 27 ml of buffer in a 50-ml tube. Then 6 ml of FX (180 nM) was added and incubated at 37° C. for 15 minutes. Six ml of EDTA was added to stop FX activation. Five μl of compound or DMSO was placed in each well of a 96-well plate in duplicate, then 65 μl of FXa generated above was added to each well and mixed. After incubation for 15 minutes at 37° C., 10 μl of FXa substrate Spectrozyme FXa was added and incubated for 20 minutes at 37° C. Absorbance at 405 nm was then measured following addition of 20 μl of 50% acetic acid. The percent inhibition of FXa activity was calculated from OD405 nm values in the absence and presence of a compound.

The next test deals with trypsin. Description: Trypsin activity assay. The settings on record: statement on Table 1 (FIG. 2(a)). As to the method:
For trypsin activity assay, 4 μl of trypsin (100 nM) was first mixed with 61 μl of buffer, 5 μl of DMSO or 5 μl of compound (in DMSO), followed by 15 minute incubation at 37° C. Then 10 μl of substrate S-2222 (4.8 mM) was added to start the reaction. After a 15 minute incubation at 37° C., 20 μl of 50% acetic acid was added to quench the reaction. Absorbance at 405 nm was then measured and the percent inhibition of trypsin activity was calculated from OD405 nm values in the absence and presence of a compound.

Test [1] deals with Russell's viper venom (RVV) (Daboia siamensis, UniProt Q7LZ61).
The target of a further test is T3, FIXa (Homo sapiens, UniProt P00740).
T3 construct: FIX was first converted to FIXa by TF/VIIa in the absence of compound; purchased Enzyme Research Laboratories Inc
Kind of test: FIXa-dependent FX activation assay. The following applies: statement on Table 2 (FIG. 2(b)). As to the method: FIX was first converted to FIXa by TF/VIIa in the absence of compound. This was done in a 50-ml tube. After incubating TF/VIIa (0.67 nM, 10 ml) at 37° C. for 15 minutes, FIX (300 nM, 0.123 ml) was added and incubated at 37° C. for 30 minutes. Then 1.54 ml of EDTA (400 mM) was added to stop the FIX activation. Then 65 μl of the above FIXa sample was transferred into wells of a 96-well plate that contain 5 μl of diluted DMSO (or buffer) or compound (in diluted DMSO or buffer). Ten μl of FX (1000 nM), 10 μl of polylysine (300 nM), and 10 μl of Spectrozyme FXa (5 mM) were added to each well and incubate at 37° C. until an OD405 nm value of ˜0.8 was reached. Absorbance at 405 nm was then measured following addition of 20 μl of 50% acetic acid. The percent inhibition of FIXa activity was calculated from OD405 nm values in the absence and presence of a compound.

T1 sequence (P13726 33-275 limits assumed): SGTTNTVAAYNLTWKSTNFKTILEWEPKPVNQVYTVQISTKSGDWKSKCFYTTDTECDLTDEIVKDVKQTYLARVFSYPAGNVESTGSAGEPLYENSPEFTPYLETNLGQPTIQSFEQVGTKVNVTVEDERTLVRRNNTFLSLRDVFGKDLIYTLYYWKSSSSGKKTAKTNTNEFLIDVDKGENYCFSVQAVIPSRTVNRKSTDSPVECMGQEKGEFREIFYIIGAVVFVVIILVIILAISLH
T1 sequence (P08709 61-212 partner limits assumed): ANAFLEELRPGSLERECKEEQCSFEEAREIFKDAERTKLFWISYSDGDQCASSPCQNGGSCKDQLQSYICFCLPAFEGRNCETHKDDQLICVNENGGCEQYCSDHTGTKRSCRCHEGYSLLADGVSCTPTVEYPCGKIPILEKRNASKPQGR
T1 sequence (P08709 213-466 partner limits assumed): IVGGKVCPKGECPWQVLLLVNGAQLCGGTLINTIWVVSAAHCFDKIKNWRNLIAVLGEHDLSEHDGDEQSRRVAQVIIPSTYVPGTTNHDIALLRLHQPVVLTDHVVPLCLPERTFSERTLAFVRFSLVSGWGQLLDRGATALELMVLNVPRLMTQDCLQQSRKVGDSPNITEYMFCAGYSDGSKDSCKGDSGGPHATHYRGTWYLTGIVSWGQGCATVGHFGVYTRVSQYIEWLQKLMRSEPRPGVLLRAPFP
T2 sequence (P00742 235-488 limits assumed): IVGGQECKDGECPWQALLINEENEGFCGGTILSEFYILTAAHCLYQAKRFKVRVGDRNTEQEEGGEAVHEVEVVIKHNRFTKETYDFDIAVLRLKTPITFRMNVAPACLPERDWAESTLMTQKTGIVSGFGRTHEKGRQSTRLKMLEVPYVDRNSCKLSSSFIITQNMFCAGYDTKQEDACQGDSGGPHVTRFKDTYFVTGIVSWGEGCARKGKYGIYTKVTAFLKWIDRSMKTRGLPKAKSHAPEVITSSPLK
T2 sequence (P00742 41-179 limits assumed): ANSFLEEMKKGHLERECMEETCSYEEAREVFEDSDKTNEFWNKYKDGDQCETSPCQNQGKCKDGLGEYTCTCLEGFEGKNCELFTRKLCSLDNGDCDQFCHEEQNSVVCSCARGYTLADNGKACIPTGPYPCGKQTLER
T3 sequence (P00740 227-461 limits assumed): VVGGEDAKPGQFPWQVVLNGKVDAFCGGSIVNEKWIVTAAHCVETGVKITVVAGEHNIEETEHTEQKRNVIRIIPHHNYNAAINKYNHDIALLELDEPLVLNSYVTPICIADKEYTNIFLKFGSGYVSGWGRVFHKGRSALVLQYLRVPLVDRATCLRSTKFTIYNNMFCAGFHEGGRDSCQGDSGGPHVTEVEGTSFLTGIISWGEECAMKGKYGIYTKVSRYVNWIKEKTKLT
T3 sequence (P00740 47-191 limits assumed): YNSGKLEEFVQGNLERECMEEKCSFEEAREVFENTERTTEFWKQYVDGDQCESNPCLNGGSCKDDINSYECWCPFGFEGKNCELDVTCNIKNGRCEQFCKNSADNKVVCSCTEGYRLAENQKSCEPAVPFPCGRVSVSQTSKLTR
Sequence of Russell's viper venom (RVV) (Q7LZ61 whole entry, looked up): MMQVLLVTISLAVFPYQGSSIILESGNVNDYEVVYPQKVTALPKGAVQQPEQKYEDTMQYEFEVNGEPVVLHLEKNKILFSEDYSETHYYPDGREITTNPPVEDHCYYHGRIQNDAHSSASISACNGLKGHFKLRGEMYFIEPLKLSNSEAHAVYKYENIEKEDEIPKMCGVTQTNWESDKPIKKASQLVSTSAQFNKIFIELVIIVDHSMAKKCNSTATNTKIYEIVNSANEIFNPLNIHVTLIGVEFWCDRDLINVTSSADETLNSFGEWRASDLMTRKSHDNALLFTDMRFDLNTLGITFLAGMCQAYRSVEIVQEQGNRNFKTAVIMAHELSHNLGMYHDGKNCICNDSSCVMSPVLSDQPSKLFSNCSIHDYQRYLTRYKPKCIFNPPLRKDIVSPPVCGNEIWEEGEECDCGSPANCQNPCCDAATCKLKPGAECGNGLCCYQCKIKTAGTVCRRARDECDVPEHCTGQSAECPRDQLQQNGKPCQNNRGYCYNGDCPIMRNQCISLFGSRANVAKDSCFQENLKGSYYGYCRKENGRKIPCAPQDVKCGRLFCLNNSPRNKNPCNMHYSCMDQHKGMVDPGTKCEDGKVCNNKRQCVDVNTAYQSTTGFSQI

Regarding `O=P(O)(O)C(CNc1cccc(O)c1)P(=O)(O)O` [Compound 1, 1-(bisphosponate)-2-amino(3-hydroxyphenyl)ethyl], on TF/VIIa complex, the “blocking activity in standard assay for TF/VIIa-dependent factor IX activation” value was “good blocking activity” and the “inhibition of TF/VIIa-dependent FIX activation” value was “inhibit TF/VIIa-dependent FIX activation”. Also, the “inhibition of FXa activity” value on FXa is reported as “do not inhibit FXa activity”. In the test with trypsin, the “inhibition of trypsin activity” value is given as “do not inhibit trypsin activity”. Moreover, the “inhibition of RVV-dependent FX activation” value in test [1] is listed as “do not inhibit RVV catalytic activity”. Further, the “inhibition of FIXa activity (FIXa-dependent FX activation)” value against FIXa is listed as “do not inhibit FIXa activity”.

In the case of `O=P(O)(O)C(CNc1ccc(O)cc1)P(=O)(O)O` [Compound 2], at TF/VIIa complex, the “blocking activity in standard assay for TF/VIIa-dependent factor IX activation” value is “good blocking activity” and the “inhibition of TF/VIIa-dependent FIX activation” value is “inhibit TF/VIIa-dependent FIX activation”. For the same compound, at FXa, the “inhibition of FXa activity” value was “do not inhibit FXa activity”. Also, in the test with trypsin, the “inhibition of trypsin activity” value is given as “do not inhibit trypsin activity”. Besides, the “inhibition of RVV-dependent FX activation” value in test [1] is on record as “do not inhibit RVV catalytic activity”. In addition, on FIXa, the “inhibition of FIXa activity (FIXa-dependent FX activation)” value was “do not inhibit FIXa activity”.
